From the supplement of paper PMC10307832

Assays:
Test in all cases: relative viability (nuclei count vs DMSO), 5 days (fraction); higher = more cells survive
[1] = compound: CC1(COc2ccc3c(c2)ncn3-c2ccc3cccc(N4CCC(N)CC4)c3n2)COC1 [Crenolanib] + Cc1nc(NC(=O)N2CCC[C@H]2C(N)=O)sc1-c1ccnc(C(C)(C)C(F)(F)F)c1 [Alpelisib] (partner 2 µM)
Summary of the method: (§1)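 Lung cancer cell lines, seeded in 1536-well plates, were treated the following day by pin tool with a single drug or with five library-drug doses (not always all listed) in √10 steps on top of a fixed anchor-drug dose. Cells were fixed and nuclei stained in one step after 5 days, and nuclei were counted. Relative viability is the nuclei count for treated wells divided by that for vehicle wells, reported as medians of duplicate plates.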

[2] = compound: O=C1NC(=O)[C@@H](c2cn3c4c(cccc24)CCC3)[C@@H]1c1c[nH]c2ccccc12 [Tivantinib] + COc1cc2c(Oc3ccc(NC(=O)C4(C(=O)Nc5ccc(F)cc5)CC4)cc3F)ccnc2cc1OCCCN1CCOCC1 [Foretinib] (partner 0.25 µM)
Summary of the method: as §1

[3] = compound: CC1(COc2ccc3c(c2)ncn3-c2ccc3cccc(N4CCC(N)CC4)c3n2)COC1 [Crenolanib] + Cc1nc(Nc2ncc(C(=O)Nc3c(C)cccc3Cl)s2)cc(N2CCN(CCO)CC2)n1 [Dasatinib] (partner 0.075 µM)
Summary of the method: as §1

[4] = compound: O=C1NC(=O)[C@@H](c2cn3c4c(cccc24)CCC3)[C@@H]1c1c[nH]c2ccccc12 [Tivantinib] + N=C(N)NC(=N)NCCc1ccccc1 [Phenformin] (partner 250 µM)
Summary of the method: as §1

Cell Line | relative viability ([1]; first compound 0.01 µM) | relative viability ([1]; first compound 0.03162 µM) | relative viability ([1]; first compound 0.1 µM) | relative viability ([1]; first compound 0.3162 µM) | relative viability ([1]; first compound 1 µM) | relative viability ([2]; first compound 0.01 µM) | relative viability ([2]; first compound 0.03162 µM) | relative viability ([2]; first compound 0.1 µM) | relative viability ([2]; first compound 0.3162 µM) | relative viability ([3]; first compound 0.01 µM) | relative viability ([3]; first compound 0.03162 µM) | relative viability ([3]; first compound 0.1 µM) | relative viability ([3]; first compound 0.3162 µM) | relative viability ([3]; first compound 1 µM) | relative viability ([4]; first compound 0.01 µM) | relative viability ([4]; first compound 0.03162 µM) | relative viability ([4]; first compound 0.1 µM) | relative viability ([4]; first compound 0.3162 µM)
201T | 1.01 | 1.02 | 0.998 | 1.05 | 1.05 | 1.16 | 1.01 | 1.02 | 0.921 | 0.603 | 0.602 | 0.569 | 0.528 | 0.614 | 0.421 | 0.458 | 0.415 | 0.451
A549 | 0.808 | 0.795 | 0.743 | 0.798 | 0.747 | 0.977 | 1.03 | 0.913 | 0.889 | – | – | – | – | – | 0.158 | 0.169 | 0.146 | 0.263
A-427 | 1.06 | 1.1 | 1.02 | 1.12 | 0.977 | 1.06 | 1.24 | 0.97 | 0.848 | 0.693 | 0.723 | 0.699 | 0.688 | 0.64 | 0.378 | 0.391 | 0.325 | 0.304
ABC-1 | 1.06 | 1.13 | 0.772 | 0.999 | 0.898 | 0.936 | 0.995 | 1.09 | 1.15 | 0.566 | 0.718 | 0.538 | 0.608 | 0.564 | 0.23 | 0.246 | 0.201 | 0.228
BEN | 0.917 | 0.895 | 0.904 | 0.972 | 0.97 | 0.602 | 0.535 | 0.616 | 0.559 | 0.281 | 0.256 | 0.363 | 0.345 | 0.323 | 0.29 | 0.258 | 0.254 | 0.26
CAL-12T | 1.33 | 1.12 | 1.21 | 1.49 | 1.2 | 1.17 | 0.953 | 1.1 | 0.782 | 0.455 | 0.51 | 0.498 | 0.615 | 0.514 | 0.639 | 0.529 | 0.582 | 0.259
COR-L23 | 0.854 | 0.78 | 0.602 | 0.966 | 0.731 | 1.01 | 0.953 | 0.893 | 1.04 | 0.497 | 0.466 | 0.475 | 0.54 | 0.417 | 0.453 | 0.416 | 0.415 | 0.508
COR-L 105 | 1.02 | 1.25 | 0.811 | 1.03 | 1.02 | 0.834 | 0.991 | 0.982 | 0.735 | 0.453 | 0.315 | 0.383 | 0.42 | 0.411 | 0.523 | 0.366 | 0.401 | 0.369
Calu-6 | 1.01 | 0.92 | 1 | 1.17 | 1.12 | 0.931 | 0.924 | 0.806 | 0.725 | – | – | – | – | – | – | – | – | –
ChaGo-K-1 | – | – | – | – | – | 0.846 | 0.904 | 0.838 | 0.559 | 0.6 | 0.579 | 0.617 | 0.585 | 0.604 | 0.586 | 0.442 | 0.483 | 0.542
EBC-1 | 0.89 | 0.78 | 0.868 | 0.798 | 0.845 | 0.117 | 0.107 | 0.0799 | 0.0958 | – | – | – | – | – | – | – | – | –
EKVX | 0.893 | 0.96 | 0.862 | 0.965 | 0.99 | 0.714 | 0.841 | 0.761 | – | 0.519 | 0.473 | 0.561 | 0.591 | 0.512 | 0.218 | 0.256 | 0.243 | –
EMC-BAC-2 | 0.747 | 0.758 | 0.68 | 0.881 | 0.771 | 1 | 0.962 | 0.487 | 0.72 | 0.369 | 0.312 | 0.315 | 0.313 | 0.307 | 0.566 | 0.453 | 0.528 | 0.528
EPLC-272H | – | 0.879 | 0.821 | 1.03 | 0.938 | 0.776 | 0.593 | 0.787 | 0.0941 | 0.35 | 0.349 | 0.317 | 0.391 | 0.532 | 0.248 | 0.294 | 0.296 | 0.0595
H3255 | 0.811 | 0.676 | 0.71 | 0.714 | 0.767 | 0.806 | 0.933 | 0.802 | – | 0.323 | 0.266 | 0.376 | 0.422 | 0.338 | 0.315 | 0.357 | 0.355 | –
HARA | 0.877 | 0.818 | 0.712 | 0.793 | 0.751 | 0.864 | 0.795 | 0.935 | 0.643 | 0.234 | 0.256 | 0.3 | 0.246 | 0.292 | 0.418 | 0.417 | 0.416 | 0.373
HCC-15 | 0.873 | 0.829 | 0.888 | 0.814 | 0.836 | 1.04 | 1.01 | 0.991 | 0.986 | 0.645 | 0.678 | 0.66 | 0.701 | 0.545 | 0.476 | 0.411 | 0.478 | 0.479
HCC-44 | 0.836 | 0.857 | 0.718 | 0.932 | 0.782 | – | – | – | – | – | – | – | – | – | 0.325 | 0.171 | 0.225 | 0.215
HCC-78 | 0.357 | 0.312 | 0.348 | 0.402 | 0.338 | 0.548 | 0.547 | 0.539 | 0.441 | 0.389 | 0.314 | – | 0.354 | 0.275 | 0.682 | 0.711 | 0.689 | 0.533
HCC-366 | 0.484 | 0.655 | 0.351 | 0.428 | 0.406 | 0.89 | 0.852 | 0.929 | 0.912 | 0.655 | 0.662 | 0.593 | 0.648 | 0.519 | 0.63 | 0.637 | 0.598 | 0.635
